Results published in article PMC9892005, “Principles of mitoribosomal small subunit assembly in eukaryotes” (Nature, 2022).

Legend:
[1] = biological target: T1, Rsm22 (Saccharomyces cerevisiae, UniProt P36056); test: cryo-EM structure of native mtSSU assembly intermediates; type: binding; conditions: architectural cofactor; Rsm22 bound to pre-mtSSU
T1 construct: native yeast mtSSU assembly intermediates; untagged Rsm22 in Ccm1-purified states 1 and 2, C-terminal linker-TEV-alfa-3C-mCherry tag (cleaved) in state 3
T1 sequence (P36056 16-628): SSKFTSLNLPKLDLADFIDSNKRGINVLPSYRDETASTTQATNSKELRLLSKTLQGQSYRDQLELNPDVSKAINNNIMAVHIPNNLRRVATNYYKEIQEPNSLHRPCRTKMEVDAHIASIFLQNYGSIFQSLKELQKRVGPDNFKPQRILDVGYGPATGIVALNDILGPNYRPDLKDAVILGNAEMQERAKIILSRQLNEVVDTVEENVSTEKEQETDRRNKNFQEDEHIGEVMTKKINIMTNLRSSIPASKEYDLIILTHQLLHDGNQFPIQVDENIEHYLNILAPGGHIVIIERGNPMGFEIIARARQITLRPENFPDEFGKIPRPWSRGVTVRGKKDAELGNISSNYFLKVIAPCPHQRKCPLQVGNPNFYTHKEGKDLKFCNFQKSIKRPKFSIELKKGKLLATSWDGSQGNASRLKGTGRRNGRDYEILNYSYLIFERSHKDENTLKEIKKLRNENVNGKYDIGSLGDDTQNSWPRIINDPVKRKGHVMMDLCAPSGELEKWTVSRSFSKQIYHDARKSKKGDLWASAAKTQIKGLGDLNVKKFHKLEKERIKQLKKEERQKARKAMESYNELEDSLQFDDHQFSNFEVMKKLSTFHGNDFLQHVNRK

[2] = biological target: T2, METTL17 (Homo sapiens, UniProt Q9H7H0); test: as above; type: binding; conditions: architectural cofactor; METTL17 bound to pre-mtSSU
T2 construct: endogenous METTL17 with C-terminal linker-twinStrep-FLAG-10xHis-TEV-SPOT-3C-GFP tag, eluted with 3C protease
T2 sequence (Q9H7H0 28-456): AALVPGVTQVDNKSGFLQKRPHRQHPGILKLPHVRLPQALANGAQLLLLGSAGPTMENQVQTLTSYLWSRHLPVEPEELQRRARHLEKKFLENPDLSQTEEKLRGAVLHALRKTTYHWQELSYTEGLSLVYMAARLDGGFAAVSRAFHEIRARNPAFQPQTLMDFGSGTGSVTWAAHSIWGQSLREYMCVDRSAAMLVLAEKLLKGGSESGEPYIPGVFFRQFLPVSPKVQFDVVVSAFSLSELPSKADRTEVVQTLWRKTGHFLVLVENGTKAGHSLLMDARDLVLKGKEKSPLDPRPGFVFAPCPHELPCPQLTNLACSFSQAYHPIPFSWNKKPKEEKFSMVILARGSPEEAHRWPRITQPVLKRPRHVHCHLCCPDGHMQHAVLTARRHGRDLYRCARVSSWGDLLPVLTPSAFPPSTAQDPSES

[S]12[Fe]3[S]4[Fe]1[S]1[Fe]2[S]3[Fe]41 [Fe4S4 cluster]
cryo-EM structure of native mtSSU assembly intermediates [1]: identified an Fe4S4 cluster as an architectural cofactor of the Rsm22 (METTL17) protein family
cryo-EM structure of native mtSSU assembly intermediates [2]: identified an Fe4S4 cluster as an architectural cofactor of the Rsm22 (METTL17) protein family
